The text below walks through data of patent publication US20160296499A1, “Spiroindoline Antiparasitic Derivatives” (ZOETIS SERVICES LLC, priority 2013, published 2016).

One test concerns Haemonchus contortus L3. Nature of the test: Haemonchus contortus, Larvae Stage 3 (HcL3) In Vitro Assay. The settings on record: Haemonchus contortus.
Test [1] deals with Dirofilaria immitis microfilariae. Kind of test: Dirofilaria immitis, Microfilariae (DiMF) In Vitro Assay. The settings on record: Dirofilaria immitis.
Test [2] deals with T1, bovine vesicular acetylcholine transporter (VAChT) (Bos taurus, UniProt E1BK36).
T1 sequence (E1BK36 1-524): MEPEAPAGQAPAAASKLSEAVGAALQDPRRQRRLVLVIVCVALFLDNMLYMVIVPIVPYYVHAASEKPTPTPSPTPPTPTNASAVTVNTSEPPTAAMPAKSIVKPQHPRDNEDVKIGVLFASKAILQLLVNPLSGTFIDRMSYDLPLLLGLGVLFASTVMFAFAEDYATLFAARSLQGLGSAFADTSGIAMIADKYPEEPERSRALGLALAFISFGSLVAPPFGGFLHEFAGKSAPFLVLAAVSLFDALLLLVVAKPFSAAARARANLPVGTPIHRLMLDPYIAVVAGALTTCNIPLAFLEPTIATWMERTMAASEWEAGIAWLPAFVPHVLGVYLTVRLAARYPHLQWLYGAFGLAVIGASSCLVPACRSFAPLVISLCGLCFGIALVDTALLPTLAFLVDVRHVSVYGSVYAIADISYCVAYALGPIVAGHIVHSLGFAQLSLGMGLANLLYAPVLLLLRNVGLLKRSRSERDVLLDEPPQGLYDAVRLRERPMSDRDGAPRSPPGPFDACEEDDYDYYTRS
Nature of the test: Radioligand Binding Assay. The following applies: Bovine binding Ki, CHO-K1 membranes with recombinant bovine VAChT, [3H]Compound X6 0.3 nM.

[3] abbreviates: 96 h, read-out: HcL3 MEC, Minimal Effective Concentration whereby worm motility is inhibited by approximately 70%, 37° C., tested 0.001-100 μM.
Where [4] appears, read: 72 h, read-out: Di MF, MEC, decrease in microfilariae motility by visual assessment, curve starting at 100 μM.
The mark [5] stands for this setting: 96 hours, 37° C., read-out: HcL3 MEC.

Each structure is given as a SMILES string. Read-outs that look alike come from different tables or passages of the source.

The Ki is the equilibrium dissociation constant of an inhibitor or competing ligand from its target. On to `O=C(NCc1ccnc(Cl)c1)N1CC2(CCN(C/C=C/c3ccc(C(F)(F)F)cc3)CC2)c2c1cccc2C(F)(F)F` [Example 152, (E)-N-((2-chloropyridin-4-yl)methyl)-4-(trifluoromethyl)-1′-(3-(4-(trifluoromethyl)phenyl)allyl)spiro[indoline-3,4′-piperidine]-1-carboxamide], for which the minimal effective concentration came out at 5.7 µM in the test with Haemonchus contortus L3 (setting [3]) and 4.4 µM in test [1] (setting [4]). In addition, the Ki in test [2] is 1320 nM.
For `O=C(NCc1ccnc(Cl)c1)N1CC2(CCN(C/C=C/c3ccc(F)cc3)CC2)c2c1cccc2C(F)(F)F` [Example 153, (E)-N-((2-chloropyridin-4-yl)methyl)-1′-(3-(4-fluorophenyl)allyl)-4-(trifluoromethyl)spiro[indoline-3,4′-piperidine]-1-carboxamide], the minimal effective concentration is 5.7 µM in the test with Haemonchus contortus L3 (setting [3]) and 7.6 µM in test [1] (setting [4]). For the same molecule, the Ki in test [2] was 218 nM.
Consider `O=C(NCc1ccnc(Cl)c1)N1CC2(CCN(C/C=C/c3ccc(F)cc3)CC2)c2cc(C(F)(F)F)ccc21` [Example 154, (E)-N-((2-chloropyridin-4-yl)methyl)-1′-(3-(4-fluorophenyl)allyl)-5-(trifluoromethyl)spiro[indoline-3,4′-piperidine]-1-carboxamide], for which the minimal effective concentration was found to be 6.6 µM with Haemonchus contortus L3 (setting [5]) and 2.8 µM in test [1] (72 hours, read-out: Di MF). Moreover, the inhibition constant Ki in test [2] came out at 283 nM.
`Cc1c(F)ccc2c1C1(CCN(C/C=C/c3ccc(Cl)cc3)CC1)CN2C(=O)NCc1ccnc(Cl)c1` [Example 155, (E)-1′-(3-(4-chlorophenyl)allyl)-N-((2-chloropyridin-4-yl)methyl)-5-fluoro-4-methylspiro[indoline-3,4′-piperidine]-1-carboxamide]: the figures for the minimal effective concentration (in the test with Haemonchus contortus L3 (setting [3]); in test [1] (setting [4])) were 7.3 µM and 3.3 µM, respectively. The Ki in test [2] was 74.8 nM.
The corresponding values for `O=C(NCc1ccnc(Cl)c1)N1CC2(CCN(C/C=C/c3ccc(Cl)cc3)CC2)c2c(Br)cccc21` [Example 156, (E)-4-bromo-1′-(3-(4-chlorophenyl)allyl)-N-((2-chloropyridin-4-yl)methyl)spiro[indoline-3,4′-piperidine]-1-carboxamide] are 7.8 µM, 5.7 µM and 71.5 nM.
The corresponding values for `N#Cc1ccc(/C=C/CN2CCC3(CC2)CN(C(=O)NCc2ccnc(Cl)c2)c2ccc(F)c(Cl)c23)cc1` [Example 157, (E)-4-chloro-N-((2-chloropyridin-4-yl)methyl)-1′-(3-(4-cyanophenyl)allyl)-5-fluorospiro[indoline-3,4′-piperidine]-1-carboxamide] are 8.1 µM, 11 µM and 22.7 nM.
Consider `O=C(NCc1ccnc(Cl)c1)N1CC2(CCN(C/C=C/c3ccc(F)cc3)CC2)c2c1ccc(F)c2Cl` [Example 158, (E)-4-chloro-N-((2-chloropyridin-4-yl)methyl)-5-fluoro-1′-(3-(4-fluorophenyl)allyl)spiro[indoline-3,4′-piperidine]-1-carboxamide], for which the minimal effective concentration in the test on Haemonchus contortus L3 (setting [5]) turned out to be 9.9 µM; in test [1] (72 hours, read-out: Di MF), 4.3 µM. For the same molecule, the Ki in test [2] worked out at 54.8 nM.
`O=C(NCc1ccnc(Cl)c1)N1CC2(CCN(C/C=C/c3ccc(Cl)cc3)CC2)c2c1ccc(OC(F)(F)F)c2Cl` [Example 159, (E)-4-chloro-1′-(3-(4-chlorophenyl)allyl)-N-((2-chloropyridin-4-yl)methyl)-5-(trifluoromethoxy)spiro[indoline-3,4′-piperidine]-1-carboxamide]: the minimal effective concentration worked out at 10 µM with Haemonchus contortus L3 (setting [5]) and 24 µM in test [1] (72 hours, read-out: Di MF). In test [2], the Ki is 565 nM.
The corresponding values for `O=C(NCc1ccnc(Cl)c1)N1CC2(CCN(C/C=C/c3ccc(Cl)cc3)CC2)c2cc(C(F)(F)F)ccc21` [Example 160, (E)-1′-(3-(4-chlorophenyl)allyl)-N-((2-chloropyridin-4-yl)methyl)-5-(trifluoromethyl)spiro[indoline-3,4′-piperidine]-1-carboxamide] are 10 µM, 10 µM and 226 nM.
